Experiment [1] has as its system GBM39 cells. The experiment is described as follows: Next generation sequencing fine structure analysis of EGFRvIII amplification in GBM39 cultures. As to conditions: Erlotinib Treatment (ERZ) sample (row 4), FIG. 13B, naive samples 110 to 150. It is filed as cell-based, human.
Experiment [2] concerns GBM39 cells. Briefly: FISH images of EGFRvIII amplification (extrachromosomal or chromosomal DNA) in GBM39 cells. It is filed as cell-based, human. As to conditions: FIG. 13A. As for the experimental part: Cytogenetics. Metaphase cells were obtained by treating cells with Karyomax (Gibco) at a final concentration of 0.01 μg/ml for 1-3 hours. Cells were collected, washed in PBS, and resuspended in 0.075 M KCl for 15-30 minutes. Carnoy's fixative (3:1 methanol/glacial acetic acid) was added dropwise to stop the reaction. Cells were washed an additional 3 times with Carnoy's fixative, before being dropped onto humidified glass sides for metaphase cell preparations. For ECdetect analyses, DAPI was added to the slides. Images in the main figures were captured with an Olympus FV1000 confocal microscope. All other images were captured at a magnification of 1000 with an Olympus BX43 microscope equipped with a QiClick cooled camera. FISH was performed by adding the appropriate DNA FISH probe onto the fixed metaphase spreads. A coverslip was added and sealed with rubber cement. DNA denaturation was carried out at 75° C. for 3-5 minutes and the slides were allowed to hybridize overnight at 37° C. in a humidified chamber. Slides were subsequently washed in 0.4×SSC at 50° C. for 2 minutes, followed by a final wash in 2×SSC/0.05% Tween-20. Metaphase cells and interphase nuclei were counterstained with DAPI, a coverslip was applied, and images were captured.

Here are results for one compound from US11193164B2, “Methods of diagnosing and treating cancer targeting extrachromosomal DNA” (The Regents of the University of California, priority 2017, dated 2021).

With `C#Cc1cccc(Nc2ncnc3cc(OCCOC)c(OCCOC)cc23)c1` [Erlotinib], in experiment [1], the “Average copy numbers of amplified intervals as determined from sequencing analysis” value was found to be 5.4. Further, the “Location of EGFRvIII amplification in FISH images” value in experiment [2] (GBM39 cells after Drug Withdrawal) was “EC amplification”; in experiment [2] (GBM39 cells in response to Erlotinib Treatment (ERZ), naive cells EC amplification), “HSR amplification”.
